Source: patent US6465443B2, “Method for inhibiting bone resorption” (Merck & Co., Inc., priority 1997, dated 2002)

Experiments:
canine esophagus tissue = assay: Esophageal irritation potential, dog model (esophageal infusion, histopathology); type: in vivo; details: for Esophageal irritation potential: low dosages on consecutive days (Group 7, Group 8)
Method: The esophageal irritation potential of the bisphosphonates is evaluated using a dog model.
The following solutions are prepared:
(1) simulated gastric juice (pH about 2), i.e. the control solution.
(5) simulated gastric juice (pH about 2) containing about 0.20 mg/mL of risedronate sodium on a risedronic acid active basis.
(6) simulated gastric juice (pH about 2) containing about 4.0 mg/mL of tiludronate disodium on a tiludronic acid active basis.
The simulated gastric juice is prepared by dissolving about 960 mg of pepsin (L-585,228000B003, Fisher Chemical) in about 147 mL of 0.90 (wt %) NaCl (aqueous), adding about 3 mL of 1.0 M HCl (aqueous), and adjusting the volume to about 300 mL with deionized water. The pH of the resulting solution is measured and if necessary is adjusted to about 2 using 1.0 M HCl (aqueous) or 1.0 M NaOH (aqueous).
The animals used in the experiments are anesthetized and administered about 50 mL of the appropriate solution over about 30 minutes by infusion into the esophagus using an infusion pump and a rubber catheter. The following treatment experiments are run:
Group 1: This control group contains four animals. Each animal is administered a dosage of about 50 mL of simulated gastric juice [solution (1)] on each of five consecutive days. […]
Group 2: This group contains four animals. […]
Group 3: This group contains five animals. […] The animals are sacrificed about 24 hours after the dose is administered.
Group 4: This group contains five animals. […] The animals are sacrificed about 7 days after the dose is administered.
Group 5: This group contains six animals. […] The animals are administered a total of four dosages. The animals are sacrificed about 7 days after the last dose is administered.
Group 6: This group contains six animals. […] The animals are administered a total of eight dosages. The animals are sacrificed about four days after the last dose is administered.
Group 7: This group contains eight animals. Each animal is administered a dosage of about 50 mL of simulated gastric juice containing about 0.20 mg/mL of risedronate [solution (5)] on each of five consecutive days. […]
Group 8: This group contains four animals. Each animal is administered a dosage of about 50 mL of simulated gastric juice containing about 4.0 mg/mL of tiludronate [solution (6)] on each of five consecutive days. […]
The esophagus from each sacrificed animal is removed and prepared for histopathology using standard techniques by embedding the tissue in paraffin, staining with hematoxylin and eosin. The sections are examined microscopically.

esophagus = details: oral administration, patients; cited from earlier work
bone resorption = details: early postmenopausal bone loss (Mortensen et al.); cited from earlier work
bone mineralization = details: doses used clinically; cited from earlier work
[1] = Group 4: 0.80 mg/mL, 1X, sacrifice 7 days after dosing

**Q.** Which “Histo-pathology (esophagus)” value (canine esophagus tissue; Group 2 (n = 4): 0.20 mg/mL, about 50 mL in simulated gastric juice pH about 2, 1X daily for 5 days, sacrifice immediately after last dosing, listed as alendronate, monosodium trihydrate) does the source give for `NCCCC(O)(P(=O)(O)O)P(=O)(O)O` [Alendronate, 4-amino-1-hydroxybutylidene-1,1-bisphosphonic acid monosodium trihydrate] here?
**A.** deep ulceration of the epithelial surface and marked submucosal inflammation and vacuolation

**Q.** What about the “Histo-pathology (esophagus)” value (canine esophagus tissue; Group 3 (n = 5): 0.80 mg/mL, about 50 mL in simulated gastric juice, 1X, sacrifice 24 hours after dosing, listed as alendronate, monosodium trihydrate) of the same compound?
**A.** intact epithelial surface with very slight submucosal inflammation and vacuolation

**Q.** What about the “Histo-pathology (esophagus)” value (canine esophagus tissue; Group 3 (n = 5): 0.80 mg/mL, about 50 mL in simulated gastric juice, 1X, sacrifice 24 hours after dosing, monosodium trihydrate) of the same compound?
**A.** Intact epithelial

**Q.** And the “Histo-pathology (esophagus)” value (canine esophagus tissue; Group 4 (n = 5): 0.80 mg/mL, about 50 mL in simulated gastric juice, 1X, sacrifice 7 days after dosing, listed as alendronate, monosodium trihydrate)?
**A.** intact epithelium with either minimal inflammation (two of the five animals) or no inflammation (three of the five animals) and no vacuolation

**Q.** What about the “Animals with minimal inflammation” value (canine esophagus tissue; [1]) of the same compound?
**A.** inflammation (2 of 5

**Q.** And the “Animals with no inflammation” value (canine esophagus tissue; [1])?
**A.** inflammation (3 of 5

**Q.** And the “Histo-pathology (esophagus)” value (canine esophagus tissue; Group 5 (n = 6): 0.80 mg/mL, about 50 mL in simulated gastric juice, 1X weekly for a total of 4 doses, sacrifice 7 days after last dosing, listed as alendronate, monosodium trihydrate)?
**A.** normal with an intact epithelium and absence of inflammatory cells in the submucosa

**Q.** And the “Histo-pathology (esophagus)” value (canine esophagus tissue; Group 5 (n = 6): 0.80 mg/mL, about 50 mL in simulated gastric juice, 1X weekly for a total of 4 doses, sacrifice 7 days after last dosing, monosodium trihydrate)?
**A.** Intact epithelium with

**Q.** What about the “Histo-pathology (esophagus)” value (canine esophagus tissue; Group 6 (n = 6): 0.40 mg/mL, about 50 mL in simulated gastric juice, 2X weekly for 4 weeks, sacrifice immediately after last dosing (table; text: about four days after), listed as alendronate, monosodium trihydrate) of the same compound?
**A.** deep ulceration of the epithelial surface and marked submucosal inflammation and vacuolation

**Q.** And the “Adverse gastrointestinal (esophageal) effects associated with use” value (esophagus)?
**A.** associated with esophagitis and/or esophageal ulcers

**Q.** What does the source list for `O=P(O)(O)C(O)(Cc1cccnc1)P(=O)(O)O` [Risedronate, 1-hydroxy-2-(3-pyridinyl)-ethylidene-1,1-bisphosphonic acid]?
**A.** Antiresorptive efficacy of cyclic dosing relative to continuous daily dosing (bone resorption): cyclic dosing is actually less effective than continuous daily dosing; Histo-pathology (esophagus) (canine esophagus tissue; Group 7 (n = 8): 0.20 mg/mL, about 50 mL in simulated gastric juice, 1X daily for 5 days, sacrifice immediately after last dosing, listed as risedronate): deep ulceration of the epithelial surface and marked submucosal inflammation and vacuolation; Animals with deep ulceration of epithelial surface (canine esophagus tissue; Group 7: 0.20 mg/mL, 1X daily for 5 days, sacrifice immediately after last dosing): (4 of 8 animals).; Esophageal irritation potential (canine esophagus tissue): high

**Q.** With `O=P(O)(O)C(Sc1ccc(Cl)cc1)P(=O)(O)O` [Tiludronate, (4-chlorophenyl)thiomethane-1,1-disphosphonic acid] as the compound, how does the “Histo-pathology (esophagus)” value (canine esophagus tissue; Group 8 (n = 4): 4.0 mg/mL, about 50 mL in simulated gastric juice, 1X daily for 5 days, sacrifice 24 hours after last dosing (table; text: immediately)) read?
**A.** Slight submucosal

**Q.** And the “Histo-pathology (esophagus)” value (canine esophagus tissue; Group 8 (n = 4): 4.0 mg/mL, about 50 mL in simulated gastric juice, 1X daily for 5 days, sacrifice 24 hours after last dosing (table; text: immediately), listed as tiludronate)?
**A.** slight ulceration of the epithelial surface and slight submucosal inflammation and vacuolation

**Q.** And the “Animals with slight submucosal inflammation and vacuolation” value (canine esophagus tissue; Group 8: 4.0 mg/mL, 1X daily for 5 days)?
**A.** vacuolation (3 of 4

**Q.** What about the Esophageal irritation potential (canine esophagus tissue) of the same compound?
**A.** high

**Q.** For `CC(O)(P(=O)(O)O)P(=O)(O)O` [etidronate, 1-hydroxyethane-1,1-diphosphonic acid], which “Effect on bone mineralization” value (bone mineralization) is on record?
**A.** impairs mineralization at doses used clinically

**Q.** With `NCCC(O)(P(=O)(O)O)P(=O)(O)O` [pamidronate, 3-amino-1-hydroxypropylidene-1,1-bisphosphonic acid] as the compound, how does the “Adverse gastrointestinal (esophageal) effects associated with use” value (esophagus) read?
**A.** associated with esophageal ulcers
